Data published in ChEMBL document CHEMBL5543105, “Total synthesis and structural modification of the dibenzylbutane lignan LCA as a potent anti-inflammatory agent against LPS-induced acute lung injury” (Eur J Med Chem, 2024).
Activity calls are given as the source filed them. The rule behind the calls is not given here.

Columns and labels:
RAW264.7 [1] = assay: Cytotoxicity against mouse RAW264.7 cells upto 20 uM incubated for 24 hrs by CCK-8 assay; type: toxicity, cell-based; conditions: raw264.7, 24 h
RAW264.7 [2] = assay: Anti-inflammatory activity against mouse RAW264.7 cells assessed as inhibition of LPS-induced NO production at 20 uM incubated for 24 hrs; type: functional, cell-based
Mus musculus [3] = assay: Anti-inflammatory activity against LPS-induced acute […] injury C57BL/6 mouse model assessed as reduction in alveolar thickness in lung at 20 mg/kg, ip administered for 1 hr and measured after 6 hrs by H and E staining based analysis; type: functional, organism-based; conditions: time 7.0 hrs
Mus musculus [4] = assay: Anti-inflammatory activity against LPS-induced acute […] injury C57BL/6 mouse model assessed as reduction in congestion in lung at 20 mg/kg, ip administered for 1 hr and measured after 6 hrs by H and E staining based analysis; type: functional, organism-based; conditions: time 7.0 hrs
Mus musculus [5] = assay: Anti-inflammatory activity against LPS-induced acute […] injury C57BL/6 mouse model assessed as reduction in wet weight to dry weight ratio in lung at 20 mg/kg, ip administered for 1 hr and measured after 6 hrs; type: functional, organism-based; conditions: time 7.0 hrs
Mus musculus [6] = assay: Anti-inflammatory activity against LPS-induced acute […] injury C57BL/6 mouse model assessed as reduction in lung edema at 20 mg/kg, ip administered for 1 hr and measured after 6 hrs by H and E staining based analysis; type: functional, organism-based; conditions: time 7.0 hrs
Mus musculus [7] = assay: Anti-inflammatory activity against LPS-induced acute […] injury C57BL/6 mouse model assessed as improvement in pulmonary hemorrhage at 20 mg/kg, ip administered for 1 hr and measured after 6 hrs by H and E staining based analysis; type: functional, organism-based; conditions: time 7.0 hrs
Mus musculus [8] = assay: Anti-inflammatory activity against LPS-induced acute […] injury C57BL/6 mouse model assessed as improvement in destruction of lung structure at 20 mg/kg, ip administered for 1 hr and measured after 6 hrs by H and E staining based analysis; type: functional, organism-based; conditions: time 7.0 hrs
Mus musculus [9] = assay: Anti-inflammatory activity against LPS-induced acute […] injury C57BL/6 mouse model assessed as reduction in bleeding points in lung at 20 mg/kg, ip administered for 1 hr and measured after 6 hrs by H and E staining based analysis; type: functional, organism-based; conditions: time 7.0 hrs
Mus musculus [10] = assay: Anti-inflammatory activity against LPS-induced acute […] injury C57BL/6 mouse model assessed as improvement in alveolar structure at 20 mg/kg, ip administered for 1 hr and measured after 6 hrs by H and E staining based analysis; type: functional, organism-based; conditions: time 7.0 hrs
Mus musculus [11] = assay: Anti-inflammatory activity against LPS-induced acute […] injury C57BL/6 mouse model assessed as improvement in alveolar wall thickness at 20 mg/kg, ip administered for 1 hr and measured after 6 hrs by H and E staining based analysis; type: functional, organism-based; conditions: time 7.0 hrs
Mus musculus [12] = assay: Anti-inflammatory activity against LPS-induced acute […] injury C57BL/6 mouse model assessed as improvement in lung edema at 20 mg/kg, ip administered for 1 hr and measured after 6 hrs by H and E staining based analysis; type: functional, organism-based; conditions: time 7.0 hrs
Mus musculus [13] = assay: Anti-inflammatory activity against LPS-induced acute […] injury C57BL/6 mouse model assessed as reduction in inflammatory cell infiltration at 20 mg/kg, ip administered for 1 hr and measured after 6 hrs by H and E staining based analysis; type: functional, organism-based; conditions: time 7.0 hrs

Row | SMILES | Activity (RAW264.7 [1]) | other results
1 | COc1cc(C[C@H](C(=O)N2CCN(c3ccccc3Cl)CC2)[C@@H](Cc2cc(OC)c(O)c(OC)c2)C(=O)N2CCN(c3ccccc3Cl)CC2)cc(OC)c1O | Non-Toxic | Activity (RAW264.7 [2]): Active
2 | COc1cc(C[C@H](C(=O)N2CCN(c3ccc(F)cc3)CC2)[C@@H](Cc2cc(OC)c(O)c(OC)c2)C(=O)N2CCN(c3ccc(F)cc3)CC2)cc(OC)c1O | Non-Toxic | 
3 | COc1cc(C[C@H](C(=O)N2CCCCC2)[C@@H](Cc2cc(OC)c(O)c(OC)c2)C(=O)N2CCCCC2)cc(OC)c1O | Non-Toxic | 
4 | COc1cc(C[C@H](C(=O)N2CCN(c3cccc(Cl)c3Cl)CC2)[C@@H](Cc2cc(OC)c(O)c(OC)c2)C(=O)N2CCN(c3cccc(Cl)c3Cl)CC2)cc(OC)c1O | Non-Toxic | 
5 | COc1cc(C[C@H](C(=O)NC2CC(OC)C2)[C@@H](Cc2cc(OC)c(O)c(OC)c2)C(=O)NC2CC(OC)C2)cc(OC)c1O (some centres not stated) | Non-Toxic | 
6 | COc1cc(C[C@H](C(=O)NCC2CCCCC2)[C@@H](Cc2cc(OC)c(O)c(OC)c2)C(=O)NCC2CCCCC2)cc(OC)c1O | Non-Toxic | 
7 | COc1cc(C[C@H](C(=O)N2CCOCC2)[C@@H](Cc2cc(OC)c(O)c(OC)c2)C(=O)N2CCOCC2)cc(OC)c1O | Non-Toxic | Activity (RAW264.7 [2]): Active
8 | COc1cc(C[C@H](C(=O)N2CCN(c3ccc(Cl)cc3)CC2)[C@@H](Cc2cc(OC)c(O)c(OC)c2)C(=O)N2CCN(c3ccc(Cl)cc3)CC2)cc(OC)c1O | Non-Toxic | Activity (RAW264.7 [2]): Active
9 | COc1cc(C[C@H](C(=O)N2CCN(C)CC2)[C@@H](Cc2cc(OC)c(O)c(OC)c2)C(=O)N2CCN(C)CC2)cc(OC)c1O | Non-Toxic | Activity (RAW264.7 [2]): Active
10 | COc1cc(C[C@H](C(=O)N2CCN(c3ccc(F)cc3F)CC2)[C@@H](Cc2cc(OC)c(O)c(OC)c2)C(=O)N2CCN(c3ccc(F)cc3F)CC2)cc(OC)c1O | Non-Toxic | Activity (RAW264.7 [2]): Active
11 | COc1ccc(N2CCN(C(=O)[C@@H](Cc3cc(OC)c(O)c(OC)c3)[C@@H](Cc3cc(OC)c(O)c(OC)c3)C(=O)N3CCN(c4ccc(OC)cc4)CC3)CC2)cc1 | Non-Toxic | 
12 | COc1cc(C[C@H](C(=O)N2CCN(c3cccc(C)c3)CC2)[C@@H](Cc2cc(OC)c(O)c(OC)c2)C(=O)N2CCN(c3cccc(C)c3)CC2)cc(OC)c1O | Non-Toxic | 
13 | COc1cccc(N2CCN(C(=O)[C@@H](Cc3cc(OC)c(O)c(OC)c3)[C@@H](Cc3cc(OC)c(O)c(OC)c3)C(=O)N3CCN(c4cccc(OC)c4)CC3)CC2)c1 | Non-Toxic | 
14 | COc1cc(C[C@H](C(=O)N2CCN(c3ccccc3F)CC2)[C@@H](Cc2cc(OC)c(O)c(OC)c2)C(=O)N2CCN(c3ccccc3F)CC2)cc(OC)c1O | Non-Toxic | 
15 | COc1cc(C[C@H](C(=O)N2CCN(c3cccc(C(F)(F)F)c3)CC2)[C@@H](Cc2cc(OC)c(O)c(OC)c2)C(=O)N2CCN(c3cccc(C(F)(F)F)c3)CC2)cc(OC)c1O | Non-Toxic | Activity (RAW264.7 [2]): Active
16 | COc1cc(C[C@H](C(=O)NC2CC2)[C@@H](Cc2cc(OC)c(O)c(OC)c2)C(=O)NC2CC2)cc(OC)c1O | Non-Toxic | 
17 | COc1cc(C[C@H](C(=O)N2CCN(c3ccccc3Br)CC2)[C@@H](Cc2cc(OC)c(O)c(OC)c2)C(=O)N2CCN(c3ccccc3Br)CC2)cc(OC)c1O | Non-Toxic | 

Row | SMILES | Activity (RAW264.7 [1]) | other results
18 | COc1ccccc1N1CCN(C(=O)[C@@H](Cc2cc(OC)c(O)c(OC)c2)[C@@H](Cc2cc(OC)c(O)c(OC)c2)C(=O)N2CCN(c3ccccc3OC)CC2)CC1 | Non-Toxic | 
19 | COc1cc(C[C@H](C(=O)N2CCN(c3ccccc3C(F)(F)F)CC2)[C@@H](Cc2cc(OC)c(O)c(OC)c2)C(=O)N2CCN(c3ccccc3C(F)(F)F)CC2)cc(OC)c1O | Non-Toxic | Activity (RAW264.7 [2]): Active
20 | COc1cc(C[C@H](C(=O)N2CCN(c3ccccc3)CC2)[C@@H](Cc2cc(OC)c(O)c(OC)c2)C(=O)N2CCN(c3ccccc3)CC2)cc(OC)c1O | Non-Toxic | 
21 | COc1cc(C[C@H](C(=O)NC2CC(F)(F)C2)[C@@H](Cc2cc(OC)c(O)c(OC)c2)C(=O)NC2CC(F)(F)C2)cc(OC)c1O | Non-Toxic | 
22 | COc1cc(C[C@H](C(=O)NC2CCC2)[C@@H](Cc2cc(OC)c(O)c(OC)c2)C(=O)NC2CCC2)cc(OC)c1O | Non-Toxic | 
23 | COc1cc(C[C@H](C(=O)NC2CCC(OC)CC2)[C@@H](Cc2cc(OC)c(O)c(OC)c2)C(=O)NC2CCC(OC)CC2)cc(OC)c1O (some centres not stated) | Non-Toxic | 
24 | COc1cc(C[C@H](C(=O)N2CCN(c3ccccc3C)CC2)[C@@H](Cc2cc(OC)c(O)c(OC)c2)C(=O)N2CCN(c3ccccc3C)CC2)cc(OC)c1O | Non-Toxic | Activity (RAW264.7 [2]): Active
25 | COc1cc(C[C@H](C(=O)N2CCN(c3cccc(F)c3)CC2)[C@@H](Cc2cc(OC)c(O)c(OC)c2)C(=O)N2CCN(c3cccc(F)c3)CC2)cc(OC)c1O | Non-Toxic | 
26 | CNC(=O)[C@@H](Cc1cc(OC)c(O)c(OC)c1)[C@@H](Cc1cc(OC)c(O)c(OC)c1)C(=O)NC | Non-Toxic | 
27 | COc1cc(C[C@H](C(=O)NCC2CCC2)[C@@H](Cc2cc(OC)c(O)c(OC)c2)C(=O)NCC2CCC2)cc(OC)c1O | Non-Toxic | 
28 | COc1cc(C[C@H](C(=O)N2CCN(c3cccc(Cl)c3)CC2)[C@@H](Cc2cc(OC)c(O)c(OC)c2)C(=O)N2CCN(c3cccc(Cl)c3)CC2)cc(OC)c1O | Non-Toxic | Activity (RAW264.7 [2]): Active
29 | COc1cc(C[C@H](C(=O)N2CCN(c3ccc(C(F)(F)F)cc3)CC2)[C@@H](Cc2cc(OC)c(O)c(OC)c2)C(=O)N2CCN(c3ccc(C(F)(F)F)cc3)CC2)cc(OC)c1O | Non-Toxic | 
30 | COc1cc(C[C@H](C(=O)NC2CCCCC2)[C@@H](Cc2cc(OC)c(O)c(OC)c2)C(=O)NC2CCCCC2)cc(OC)c1O | Non-Toxic | 
31 | COc1cc(/C=C/C(=O)OC[C@H](Cc2cc(OC)c(O)c(OC)c2)[C@@H](COC(=O)/C=C/c2ccc(O)c(OC)c2)Cc2cc(OC)c(O)c(OC)c2)ccc1O |  | Activity (Mus musculus [3]): Active; Activity (Mus musculus [4]): Active; Activity (Mus musculus [5]): Active; Activity (Mus musculus [6]): Active; Activity (Mus musculus [7]): Active; Activity (Mus musculus [8]): Active; Activity (Mus musculus [9]): Active; Activity (Mus musculus [10]): Active; Activity (Mus musculus [11]): Active; Activity (Mus musculus [12]): Active; Activity (Mus musculus [13]): Active
32 | COc1cc(C[C@H](C(=O)N2CCN(c3ccc(C)cc3)CC2)[C@@H](Cc2cc(OC)c(O)c(OC)c2)C(=O)N2CCN(c3ccc(C)cc3)CC2)cc(OC)c1O | Non-Toxic | 
33 | CCCCCCNC(=O)[C@@H](Cc1cc(OC)c(O)c(OC)c1)[C@@H](Cc1cc(OC)c(O)c(OC)c1)C(=O)NCCCCCC | Non-Toxic | 
